This note sets out measurements from ChEMBL document CHEMBL3259563, “The discovery of potent and selective non-steroidal glucocorticoid receptor modulators, suitable for inhalation” (Bioorg Med Chem Lett, 2014).

The term IC50 denotes the concentration that inhibits the measured activity by half. As usually defined, the microsomal CLint is a measure of how fast metabolising enzymes remove a compound, apart from limits set by blood flow. Usually clearance stands for a measure of how efficiently the substance is removed, as volume per time. Read a low clearance as inefficient removal.

Values after ≈ are worked out from the molar mass of the structure shown.

Data set [1] concerns the target T1, Glucocorticoid receptor (Rattus norvegicus, UniProt P06536).
T1 sequence (P06536 whole entry): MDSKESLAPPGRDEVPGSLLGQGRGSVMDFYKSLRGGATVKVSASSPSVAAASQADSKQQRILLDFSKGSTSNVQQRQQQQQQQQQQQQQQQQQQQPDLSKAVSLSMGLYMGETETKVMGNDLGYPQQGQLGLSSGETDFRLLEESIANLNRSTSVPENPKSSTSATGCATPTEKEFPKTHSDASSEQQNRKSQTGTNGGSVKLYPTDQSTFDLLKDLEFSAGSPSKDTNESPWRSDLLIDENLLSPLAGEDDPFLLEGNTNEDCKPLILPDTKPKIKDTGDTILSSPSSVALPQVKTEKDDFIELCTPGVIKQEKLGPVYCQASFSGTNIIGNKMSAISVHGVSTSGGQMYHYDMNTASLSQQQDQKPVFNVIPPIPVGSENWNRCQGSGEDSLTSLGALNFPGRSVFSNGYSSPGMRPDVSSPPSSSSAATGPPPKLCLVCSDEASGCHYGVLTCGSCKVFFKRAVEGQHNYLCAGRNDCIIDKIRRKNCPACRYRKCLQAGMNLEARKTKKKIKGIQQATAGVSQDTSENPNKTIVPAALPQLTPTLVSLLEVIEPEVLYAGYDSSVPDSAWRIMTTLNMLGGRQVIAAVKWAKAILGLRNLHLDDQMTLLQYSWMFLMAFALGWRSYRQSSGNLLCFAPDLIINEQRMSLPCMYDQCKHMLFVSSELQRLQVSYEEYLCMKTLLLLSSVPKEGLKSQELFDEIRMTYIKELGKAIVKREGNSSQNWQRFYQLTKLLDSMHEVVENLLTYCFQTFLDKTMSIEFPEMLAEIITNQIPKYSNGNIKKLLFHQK
The experiment in a line: Agonist activity at glucocorticoid receptor in rat PBMC assessed as inhibition of LPS-stimulated TNF-alpha release.

The target in data set [2] is T2, Glucocorticoid receptor (Homo sapiens, UniProt P04150).
T2 sequence (P04150 whole entry): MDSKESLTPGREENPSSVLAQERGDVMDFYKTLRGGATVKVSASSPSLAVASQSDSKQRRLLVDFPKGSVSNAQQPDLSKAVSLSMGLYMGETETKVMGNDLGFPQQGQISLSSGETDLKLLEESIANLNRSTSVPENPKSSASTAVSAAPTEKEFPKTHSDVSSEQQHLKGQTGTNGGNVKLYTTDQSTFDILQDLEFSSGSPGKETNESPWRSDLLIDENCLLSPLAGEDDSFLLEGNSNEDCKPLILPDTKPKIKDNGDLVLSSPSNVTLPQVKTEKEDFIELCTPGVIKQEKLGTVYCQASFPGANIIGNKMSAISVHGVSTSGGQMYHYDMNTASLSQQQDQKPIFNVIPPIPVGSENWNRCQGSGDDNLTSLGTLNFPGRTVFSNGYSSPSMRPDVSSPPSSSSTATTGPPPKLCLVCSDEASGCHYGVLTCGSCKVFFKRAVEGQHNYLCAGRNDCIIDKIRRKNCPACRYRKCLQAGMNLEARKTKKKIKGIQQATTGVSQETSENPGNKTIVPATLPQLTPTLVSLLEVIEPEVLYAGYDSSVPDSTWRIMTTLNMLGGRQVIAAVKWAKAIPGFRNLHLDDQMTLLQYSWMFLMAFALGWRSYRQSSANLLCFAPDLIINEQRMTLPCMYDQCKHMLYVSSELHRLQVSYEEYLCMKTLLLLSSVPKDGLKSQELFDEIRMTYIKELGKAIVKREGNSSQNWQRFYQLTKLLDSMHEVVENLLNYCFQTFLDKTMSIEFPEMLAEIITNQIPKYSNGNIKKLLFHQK
Description: Agonist activity at glucocorticoid receptor in human Chago K1 cells assessed as gene transrepression by Lac-Z reporter gene assay

Data set [3] concerns the target Voltage-gated inwardly rectifying potassium channel KCNH2 (Homo sapiens, UniProt Q12809). Description: Inhibition of human ERG channel.
Another data set deals with T3, Estrogen receptor (Homo sapiens, UniProt P03372).
T3 sequence (P03372 whole entry): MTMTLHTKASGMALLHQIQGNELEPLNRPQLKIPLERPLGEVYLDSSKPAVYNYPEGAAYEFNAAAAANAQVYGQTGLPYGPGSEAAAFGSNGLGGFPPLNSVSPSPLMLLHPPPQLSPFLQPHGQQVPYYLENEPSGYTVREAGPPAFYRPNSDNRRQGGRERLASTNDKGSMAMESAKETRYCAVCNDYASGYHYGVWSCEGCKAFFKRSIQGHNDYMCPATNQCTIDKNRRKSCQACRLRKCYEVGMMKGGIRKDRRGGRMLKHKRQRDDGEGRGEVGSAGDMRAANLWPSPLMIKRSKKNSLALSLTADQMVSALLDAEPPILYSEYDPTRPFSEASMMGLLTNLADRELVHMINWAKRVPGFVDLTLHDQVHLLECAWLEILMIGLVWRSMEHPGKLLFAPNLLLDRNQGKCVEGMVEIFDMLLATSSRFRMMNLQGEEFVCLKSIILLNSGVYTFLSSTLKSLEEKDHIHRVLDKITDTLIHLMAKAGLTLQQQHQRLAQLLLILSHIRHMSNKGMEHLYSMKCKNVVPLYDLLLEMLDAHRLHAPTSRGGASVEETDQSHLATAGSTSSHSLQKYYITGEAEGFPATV
Description: Binding affinity to ER-alpha (unknown origin).

The next data set concerns the target Cytochrome P450 3A4 (Homo sapiens, UniProt P08684). The experiment in a line: Inhibition of CYP3A4 (unknown origin). In kind it is ADME.
The next data set has as its system Hepatocyte. Description: Intrinsic clearance in rat hepatocytes. In kind it is ADME, cell-based.
Data set [4] in a line: Intrinsic clearance in human microsomes. It is filed as ADME, Microsome.
Data set [5] in a line: Volume of distribution at steady state in iv dosed rat. In kind it is ADME, organism-based. To be noted: in vivo, read-out: Vdss.
Data set [6] is described as follows: Clearance in iv dosed rat. In kind it is ADME, organism-based. The following applies: in vivo.
The nature of data set [7]: Intrinsic clearance in rat microsomes. In kind it is ADME, Microsome.
Data set [8] is described as follows: Thermodynamic solubility of the crystalline compound in 0.1 M phosphate buffer at pH 7.4 at 25 degC after 24 hrs. In kind it is physicochemical. To be noted: read-out: Therm_solubility.
The next data set has as its target Cytochrome P450 2D6 (Homo sapiens, UniProt P10635). Description: Inhibition of CYP2D6 (unknown origin). In kind it is ADME.

Sequence of Voltage-gated inwardly rectifying potassium channel KCNH2 (Q12809 whole entry): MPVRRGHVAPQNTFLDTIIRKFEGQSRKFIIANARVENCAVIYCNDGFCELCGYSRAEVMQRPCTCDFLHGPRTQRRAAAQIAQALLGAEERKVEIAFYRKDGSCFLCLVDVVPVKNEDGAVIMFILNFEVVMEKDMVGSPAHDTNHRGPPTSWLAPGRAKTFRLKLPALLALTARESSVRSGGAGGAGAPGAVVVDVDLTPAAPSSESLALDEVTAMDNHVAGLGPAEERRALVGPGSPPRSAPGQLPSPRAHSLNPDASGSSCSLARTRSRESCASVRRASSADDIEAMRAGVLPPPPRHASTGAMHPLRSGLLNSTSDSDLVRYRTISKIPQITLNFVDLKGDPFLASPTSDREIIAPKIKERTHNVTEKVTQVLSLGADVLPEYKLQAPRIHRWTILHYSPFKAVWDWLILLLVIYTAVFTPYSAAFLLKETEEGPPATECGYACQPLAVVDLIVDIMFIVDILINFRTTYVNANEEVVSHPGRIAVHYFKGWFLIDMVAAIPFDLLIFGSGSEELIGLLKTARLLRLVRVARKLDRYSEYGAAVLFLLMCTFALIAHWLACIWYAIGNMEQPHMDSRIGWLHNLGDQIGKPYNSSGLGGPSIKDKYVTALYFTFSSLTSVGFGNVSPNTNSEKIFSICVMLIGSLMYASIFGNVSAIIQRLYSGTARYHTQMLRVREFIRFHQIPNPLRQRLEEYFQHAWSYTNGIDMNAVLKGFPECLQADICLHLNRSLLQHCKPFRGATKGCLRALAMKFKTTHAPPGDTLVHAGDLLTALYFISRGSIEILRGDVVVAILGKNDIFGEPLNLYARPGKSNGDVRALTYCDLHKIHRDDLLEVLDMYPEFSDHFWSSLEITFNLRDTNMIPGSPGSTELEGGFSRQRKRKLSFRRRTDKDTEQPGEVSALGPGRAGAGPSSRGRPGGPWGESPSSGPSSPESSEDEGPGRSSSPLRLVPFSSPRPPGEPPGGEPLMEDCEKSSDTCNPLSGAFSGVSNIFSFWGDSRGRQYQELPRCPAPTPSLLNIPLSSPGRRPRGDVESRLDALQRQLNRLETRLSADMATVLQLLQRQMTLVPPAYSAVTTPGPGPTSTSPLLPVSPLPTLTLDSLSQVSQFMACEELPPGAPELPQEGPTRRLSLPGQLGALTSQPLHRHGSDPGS
Sequence of Cytochrome P450 2D6 (P10635 whole entry): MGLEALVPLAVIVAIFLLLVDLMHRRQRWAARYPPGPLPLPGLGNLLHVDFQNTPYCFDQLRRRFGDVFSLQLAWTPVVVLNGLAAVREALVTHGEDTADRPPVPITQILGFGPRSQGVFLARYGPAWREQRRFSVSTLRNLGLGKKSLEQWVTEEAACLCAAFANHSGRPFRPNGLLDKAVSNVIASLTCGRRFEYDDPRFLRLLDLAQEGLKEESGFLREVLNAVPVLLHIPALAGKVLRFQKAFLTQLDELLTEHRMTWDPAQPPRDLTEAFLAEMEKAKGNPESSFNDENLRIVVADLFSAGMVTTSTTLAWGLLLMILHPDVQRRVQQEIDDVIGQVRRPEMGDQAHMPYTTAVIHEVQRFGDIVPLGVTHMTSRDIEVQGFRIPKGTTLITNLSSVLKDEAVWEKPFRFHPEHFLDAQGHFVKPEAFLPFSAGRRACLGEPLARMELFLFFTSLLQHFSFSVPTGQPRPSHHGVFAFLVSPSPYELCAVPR
Sequence of Cytochrome P450 3A4 (P08684 whole entry): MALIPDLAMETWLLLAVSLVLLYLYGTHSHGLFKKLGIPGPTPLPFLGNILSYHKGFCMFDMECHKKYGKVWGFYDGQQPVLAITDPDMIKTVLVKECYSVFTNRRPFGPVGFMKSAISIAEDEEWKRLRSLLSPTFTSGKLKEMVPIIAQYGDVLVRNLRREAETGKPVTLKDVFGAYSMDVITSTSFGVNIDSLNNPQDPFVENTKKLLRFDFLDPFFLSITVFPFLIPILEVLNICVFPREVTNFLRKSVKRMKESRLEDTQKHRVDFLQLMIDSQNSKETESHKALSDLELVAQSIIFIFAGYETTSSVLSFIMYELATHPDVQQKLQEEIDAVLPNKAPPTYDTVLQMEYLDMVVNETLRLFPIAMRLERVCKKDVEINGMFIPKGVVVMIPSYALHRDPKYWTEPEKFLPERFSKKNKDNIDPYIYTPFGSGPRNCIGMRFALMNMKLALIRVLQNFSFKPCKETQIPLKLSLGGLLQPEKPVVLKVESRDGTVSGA

On to `Cc1nn(C2CCCC2)c(C)c1S(=O)(=O)N[C@@H](C)CNc1cccc2c1cnn2-c1ccc(F)nc1`, for which the IC50 on Glucocorticoid receptor [1] was 0.0045 µM; against Glucocorticoid receptor [2] it was 0.0072 µM; in data set [3], 8.7 µM; on Estrogen receptor it was greater than 5 µM; against Cytochrome P450 3A4, 22 µM; against Cytochrome P450 2D6, greater than 20 µM. In the data set with Hepatocyte, this compound gave a CLH of 33 µL/min. Further, the microsomal CLint in data set [4] and in [7] was greater than 200 µL/min/mg each time. Further, the Vd in data set [5] turned out to be 15 L/kg. The clearance in [6] turned out to be 78 mL/min/kg. In addition, the solubility thermodynamic at 24 h in data set [8] was 1.5 µM (≈ 0.767 µg/mL).
